# Data as given in US20050019746A1, “Apoptosis-related kinase/GPCRs” (EiRx Therapeutics Limited, priority 2003, published 2005).
# Legend:
# Type in all cases: cell-based, human
# HCT15 cells [1] = assay: 10-14 day Clonagenicity Assay (MTT), HCT15; settings: independent experiment n = 1, dilution point of maximum toxicity
# Description: (§1) The Clonagenicity Assay represents a Cell Viability Screen that allows assessment of a cytotoxic insult at a variety of seed densities of cancer cell lines over an extended period of logarithmic growth, such that the definitive effect of the test substance can be accurately quantified. In this instance, the ‘cytotoxic insult’ to be tested involves the transfection of siRNA Oligomers to knockdown the expression of novel target Kinases and GPCRs as outlined previously. Cell number is quantified 10-14 days post siRNA transfection by MTT conversion as described in detail in Example 6.
# (§2) The Clonagenicity Assay is optimised for each cell line examined with respect to seed number. The seed number varies for each cell line and accounts for the differences in cell size, growth rate and sensitivity to transfection-induced toxicity for each cell line pursued. Cells lines given as models for this example include HCT15, MCF7, A549, SKOV3, DU145, U251, PC3, A498 and HeLa. The siRNA oligo to Survivin serves as a positive control for toxicity in this assay and the missense control oligomer acts as a negative control as described in detail in Examples 5 and 6. The c-Raf, BCL2 and PI3K siRNA oligomers serve as additional controls as previously mentioned. The Clonagenicity assay is performed as outlined below.
# (§3) Cells are seeded into a 96-well plate as described below and allowed to adhere overnight at 37° C. in a humidified atmosphere containing 5% CO2 in air. Wells are seeded with an appropriate cell number (cell line dependent) in Column 1 of the 96 well plates and this cell suspension is diluted 1 in 2 across the 96 well plates from Column 1 through to 6 (represented on the x-axis in results). Cells are next transfected with siRNA Oligomers, at a concentration of 2 μg/ml, against the genes of interest. Transfections continue for 4 hrs after which the transfection solution is removed and cells are refed with fresh medium and allow to incubate overnight. An additional media change@24 hrs post transfection is made to minimise toxicity of the transfection reagent. Cells are subsequently incubated for a 10-14 Day period post transfection at a 37° C. incubation as described above. Medium is renewed weekly following which MTT quantification is performed as described in Example 5.
# (§4) To be considered cytotoxic, the siRNA Oligo against the gene target must induce a decreased viability in a cell line across at least 2 seed densities in the clonagenicity assay, such that a significant difference between the target gene and MS is observed i.e. no crossing of the Standard Error bars is detected. The average percentage viability, relative to missense, is recorded for the dilution point at which Maximum Toxicity is induced is recorded in Table 13.
# (§5) Table 13 Clonagenicity Assay—This table gives the average percentage survival of the indicated cell lines relative to the missense in a clonagenicity assay, over 3 independent experiments. As an internal reference, the known survival gene ‘Survivin’, BCL2, c-Raf and PI3KR1 was also targeted by siRNA. When no Cytotoxic response is detected ‘-’ is recorded.
# SKOV3 cells = assay: 10-14 day Clonagenicity Assay (MTT), SKOV3; settings: for percentage survival relative to the missense, n = 1: independent experiment n = 1, dilution point of maximum toxicity; for percentage survival relative to the missense, n = 3: independent experiment n = 3, dilution point of maximum toxicity
# Description: as §1, §2, §3, §4, §5
# DU145 cells = assay: 10-14 day Clonagenicity Assay (MTT), DU145; settings: for percentage survival relative to the missense, n = 1: independent experiment n = 1, dilution point of maximum toxicity; for percentage survival relative to the missense, n = 2: independent experiment n = 2, dilution point of maximum toxicity; for percentage survival relative to the missense, n = 3: independent experiment n = 3, dilution point of maximum toxicity
# Description: as §1, §2, §3, §4, §5
# U251 cells = assay: 10-14 day Clonagenicity Assay (MTT), U251; settings: for percentage survival relative to the missense, n = 1 / percentage survival relative to the missense, n = 3 / percentage survival relative to the missense, n = 2: U251, clonagenicity assay, dilution point of maximum toxicity; for percentage survival relative to the missense, n = 1: independent experiment n = 1; for percentage survival relative to the missense, n = 3: independent experiment n = 3; for percentage survival relative to the missense, n = 2: independent experiment n = 2; for viability/cytotoxicity in the Clonagenicity Assay: U251, 10-14 days post transfection, MTT, FIG. 35
# Description: as §1, §2, §3
# Note seed density decreases from 3.5 to 0.1×10^3 cells on the x-axis and the y-axis represents cell number as quantified by MTT conversion, 10-14 days post transfection. This decrease is substantially greater that with the apoptosis gene, Survivin. […] Note seed density decreases from 3.5 to 0.1×10^3 cells on the x-axis and the y-axis represents cell number as quantified by MTT conversion, 10-14 days post transfection.
# as §4, §5
# A498 cells = assay: 10-14 day Clonagenicity Assay (MTT), A498; settings: for percentage survival relative to the missense, n = 1: independent experiment n = 1, dilution point of maximum toxicity; for percentage survival relative to the missense, n = 3: independent experiment n = 3, dilution point of maximum toxicity
# Description: as §1, §2, §3, §4, §5
# A549 cells [2] = assay: 10-14 day Clonagenicity Assay (MTT), A549; settings: for percentage survival relative to the missense, n = 1: independent experiment n = 1, dilution point of maximum toxicity; for percentage survival relative to the missense, n = 3: independent experiment n = 3, dilution point of maximum toxicity
# Description: as §1, §2, §3, §4, §5
# PC3 cells = assay: 10-14 day Clonagenicity Assay (MTT), PC3; settings: independent experiment n = 3, dilution point of maximum toxicity
# Description: as §1, §2, §3, §4, §5
# A549 cells [3] = assay: Anchorage Independence/Soft Agar Assay, A549; parameters: PERCENTAGE SURVIVAL RELATIVE TO MS, A549, n = 2: tested at 2 µg; settings: soft agar
# Protocol: (§6) The Anchorage Independence/Soft Agar Assay allows assessment of the influence of modulation of gene expression on clonal tumouroid formation by observing and quantifying tumouroid morphology and colony number over an extended period of logarithmic growth thereby ascertaining any cell death is induced.
# (§7) Cells are seeded into a 6-well plate and allowed to adhere overnight at 37° C. in a humidified atmosphere containing 5% CO2 in air. Cells are next transfected with siRNA Oligomers, at a concentration of 2 μg, against the genes of interest. Transfections continued for 4 hrs after which the transfection solution is removed and cells are refed with fresh medium and allowed incubate overnight. Transfected cells are next harvested for seeding into soft agar assay as described below. Cells are seeded at 5×10^4 cells per well of a 6 well plate and incubated over a 12/14-Day period whilst proliferating in a 0.05% Agar/Medium cell suspension at 37° C. in a humidified atmosphere containing 5% CO2 in air. Colonies formed are subsequently stained with Crystal Violet, their morphology is assessed and colonies formed are enumerated at a 4× magnification.
# (§8) The cytotoxic effect of each gene is determined by a reduction in colony number compared to our MS control, but any influence on the morphology of the colony is also noted.
# (§9) Examples of genes with a cytotoxic effect on knockdown as detected by the soft agar assay are outlined in Table 14. Table 14 gives the percentage survival of the indicated cell lines post transfection with siRNA oligomers to target genes relative to that of the missense in an anchorage independent assay. As an internal reference, the known survival gene Survivin was also targeted by siRNA. This table illustrates the magnitude of cytotoxicity induced by the knockdown of each target gene compared to the MS control i.e. the number of colonies formed are stained with Crystal violet and enumerated visually as discussed.
# HCT15 cells [4] = assay: Anchorage Independence/Soft Agar Assay, HCT15; parameters: PERCENTAGE SURVIVAL RELATIVE TO MS, HCT15, n = 2: tested at 2 µg; PERCENTAGE SURVIVAL RELATIVE TO MS, HCT15, n = 1: tested at 2 µg siRNA; settings: soft agar
# Protocol: as §6, §7, §8, §9
# MCF7 cells = assay: Anchorage Independence/Soft Agar Assay, MCF7; parameters: PERCENTAGE SURVIVAL RELATIVE TO MS, MCF7, n = 2: tested at 2 µg; settings: soft agar
# Protocol: as §6, §7, §8, §9
# [5] = independent experiment n = 2, dilution point of maximum toxicity
Substance,"percentage survival relative to the missense, n = 1 (SKOV3 cells) [%]","percentage survival relative to the missense, n = 3 (SKOV3 cells) [%]","percentage survival relative to the missense, n = 3 (DU145 cells) [%]","percentage survival relative to the missense, n = 1 (U251 cells) [%]","percentage survival relative to the missense, n = 3 (U251 cells) [%]","percentage survival relative to the missense, n = 1 (A498 cells) [%]","percentage survival relative to the missense, n = 3 (A498 cells) [%]","percentage survival relative to the missense, n = 1 (A549 cells [2]) [%]","percentage survival relative to the missense, n = 3 (A549 cells [2]) [%]","percentage survival relative to the missense, n = 3 (PC3 cells) [%]","percentage survival relative to the missense, n = 2 (U251 cells) [%]",other results
"CNK/PRK (sense UCGUAGUGCUUGUACUUACtt; antisense GUAAGUACAAGCACUACGAtt; as printed in the source, key not given here)",13.8,50.1,16.8,48.8,44.5,9.5,7.2,–,–,–,–,"percentage survival relative to the missense, n = 1 (HCT15 cells [1]): 75.9%; percentage survival relative to the missense, n = 1 (DU145 cells): 46.1%; percentage survival relative to the missense, n = 2 (DU145 cells): 39%"
CNK/PRK SEQ 2 (sense CAGAAAGACUGUGCACUACTT; antisense GUAGUGCACAGUCUUUCUGTT; chemistry not given here),65.7,72.2,–,35.2,57.5,20,8.2,62.5,25.6,28.3,–,–
MKNK SEQ 2 (sense AUUGCAAGGAGGUUCCAUCTT; antisense GAUGGAACCUCCUUGCAAUTT; chemistry not given here),–,47.6,53.6,–,52.1,56.2,6,–,54.8,39.5,43.6,–
MPSK1 SEQ 2 (sense GCCGACAUGCAUCGCCUCUTT; antisense AGAGGCGAUGCAUGUCGGCTT; chemistry not given here),–,73.8,63.4,–,59.3,39.3,8.9,39.1,26.1,16.7,–,–
PSKH1 SEQ 2 (sense UUGGCCGAGGCAGCUUCAGTT; antisense CUGAAGCUGCCUCGGCCAATT; chemistry not given here),42.3,45.1,35.2,52.1,34.1,36,6,52.3,28,21.8,50.7,–
"siRNA FLJ13351: sense CACCAAUUAGUUCAAAGCUtt, antisense AGCUUUGAACUAAUUGGUGtt (sense CACCAAUUAGUUCAAAGCUTT; antisense AGCUUUGAACUAAUUGGUGTT; chemistry not given here)",–,–,–,–,–,–,–,–,–,–,–,viability/cytotoxicity in the Clonagenicity Assay (U251 cells): does not induce cytotoxicity
"siRNA PI3KR1: control siRNA, sense AUGAUCGAUGUGCACGUUUtt, antisense AAACGUGCACAUCGAUCAUtt (sense AUGAUCGAUGUGCACGUUUTT; antisense AAACGUGCACAUCGAUCAUTT; chemistry not given here) [reference compound]",55.3,41.7,44.8,56.3,21.4,–,10,–,38.3,–,–,–
"siRNA STK6: sense GCCGGUUCAGAAUCAGAAGtt, antisense CUUCUGAUUCUGAACCGGCtt (sense GCCGGUUCAGAAUCAGAAGTT; antisense CUUCUGAUUCUGAACCGGCTT; chemistry not given here)",10.2,37.2,34.8,12.8,25.8,18.5,32.6,56.8,31.6,–,51.5,"percentage survival relative to the missense, n = 1 (HCT15 cells [1]): 69.6%; percentage survival relative to the missense, n = 2 (A549 cells [2]; [5]): 69.6%; percentage survival relative to the missense, n = 2 (SKOV3 cells; [5]): 35.3%; percentage survival relative to the missense, n = 1 (DU145 cells): 48.1%; percentage survival relative to the missense, n = 2 (DU145 cells): 45.3%; viability/cytotoxicity in the Clonagenicity Assay (U251 cells): decreases viability"
"siRNA TLK2B: sense GAUGGCGUGUAGAGAUAAGtt, antisense CUUAUCUCUACACGCCAUCtt (chain 1 GAUGGCGUGUAGAGAUAAGTT; chain 2 CUUAUCUCUACACGCCAUCTT; chemistry not given here)",–,–,–,–,–,–,–,–,–,–,–,"PERCENTAGE SURVIVAL RELATIVE TO MS, A549, n = 1 (A549 cells [3]; experiment n = 1): 65.8%; PERCENTAGE SURVIVAL RELATIVE TO MS, A549, n = 2 (A549 cells [3]; experiment n = 2): 36.7%; PERCENTAGE SURVIVAL RELATIVE TO MS, HCT15, n = 1 (HCT15 cells [4]; experiment n = 1): 67.3%; PERCENTAGE SURVIVAL RELATIVE TO MS, HCT15, n = 2 (HCT15 cells [4]; experiment n = 2): 115.6%; PERCENTAGE SURVIVAL RELATIVE TO MS, MCF7, n = 1 (MCF7 cells; experiment n = 1): 83.7%; PERCENTAGE SURVIVAL RELATIVE TO MS, MCF7, n = 2 (MCF7 cells; experiment n = 2): 99.5%"
